Structures can show the parent of a compound that is named as a salt. Where two headings read alike, the source gives them in different places.
Biological target: T1, BCL6 (Homo sapiens, UniProt P41182)
T1 construct: endogenous in cells; host or cells: T47D breast cancer epithelial cells
Test: Immunofluorescence protocol for high content imaging of BCL6 (degradation) in T47D cells, 3 days compound treatment
Type: cell-based
Conditions: for DC50: read-out: Mean DC50 (nM)* category; for Dmax: read-out: Mean Dmax (%)** category
Procedure, shortened: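 Read-out: high-content imaging of anti-BCL6 immunofluorescence (Alexa-488 secondary) with CellMask and Hoechst counterstains, 10×, 4 fields/well. Cells had 3 days of compound exposure at 37° C, 5% CO2, 11-point 3-fold series from a final top of 0.1 or 1 μM.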

[1] = T47D cells, 3 days compound treatment

Structure (SMILES) | DC50 [1] | Dmax [1] | Dmax (T47D) | DC50 | Mean Dmax (%)** category
CNC(=O)COc1cc2cc(Nc3nc(N4CCC5(CCN(CC6(F)CCN(c7c(F)ccc8c7CN(C7CCC(=O)NC7=O)C8=O)CC6)CC5)CC4)ncc3Cl)ccc2n(C(C)C)c1=O (stereo not drawn) [Compound 96, 2-{[6-({5-chloro-2-[9-({1-[2-(2,6-dioxopiperidin-3-yl)-5-fluoro-1-oxo-2,3-dihydro-1H-isoindol-4-yl]-4-fluoropiperidin-4-yl}methyl)-3,9-diazaspiro[5.5]undecan-3-yl]pyrimidin-4-yl}amino)-2-oxo-1-(propan-2-yl)-1,2-dihydroquinolin-3-yl]oxy}-N-methylacetamide] | < 10 nM | 50 to 70% |  |  | 
CNC(=O)COc1cc2cc(Nc3nc(N4CCC(O[C@H]5C[C@H](N6CCCC7(CCN(c8ccc9c(c8)CN(C8CCC(=O)NC8=O)C9=O)C7)C6)C5)CC4)ncc3Cl)ccc2n(C(C)C)c1=O (stereo partly drawn) [Compound 356, 2-({6-[(5-chloro-2-{4-[(1r,3r)-3-{2-[2-(2,6-dioxopiperidin-3-yl)-1-oxo-2,3-dihydro-1H-isoindol-5-yl]-2,7-diazaspiro [4.5]decan-7-yl}cyclobutoxy]piperidin-1-yl}pyrimidin-4-yl)amino]-2-oxo-1-(propan-2-yl)-1,2-dihydroquinolin-3-yl}oxy)-N-methylacetamide] |  |  | ≥ 70% | < 10 nM | 
CNC(=O)COc1cc2cc(Nc3nc(N4CCC(O[C@H]5C[C@H](N6CCN(c7cc(F)c(F)c8c7C(=O)N(C7CCC(=O)NC7=O)C8)CC6)C5)CC4)ncc3Cl)ccc2n(C(C)C)c1=O (stereo partly drawn) [Compound 274, 2-({6-[(5-chloro-2-{4-[(1r,3r)-3-{4-[2-(2,6-dioxopiperidin-3-yl)-6,7-difluoro-3-oxo-2,3-dihydro-1H-isoindol-4-yl]piperazin-1-yl}cyclobutoxy]piperidin-1-yl}pyrimidin-4-yl)amino]-2-oxo-1-(propan-2-yl)-1,2-dihydroquinolin-3-yl}oxy)-N-methylacetamide] |  |  | < 50% | 10 to 50 nM | 
CNC(=O)COc1cc2cc(Nc3nc(N4CCC(OC5CCC6(CC5)CN(c5cc(OC)cc7c5CN(C5CCC(=O)NC5=O)C7=O)C6)CC4)ncc3Cl)ccc2n(C(C)C)c1=O (stereo not drawn) [Compound 301, 2-{[6-({5-chloro-2-[4-({2-[2-(2,6-dioxopiperidin-3-yl)-6-methoxy-1-oxo-2,3-dihydro-1H-isoindol-4-yl]-2-azaspiro[3.5]nonan-7-yl}oxy)piperidin-1-yl]pyrimidin-4-yl}amino)-2-oxo-1-(propan-2-yl)-1,2-dihydroquinolin-3-yl]oxy}-N-methylacetamide] |  |  | 50 to 70% | < 10 nM | 
CNC(=O)COc1cc2cc(Nc3cc(N4CCC(CN5CCC6(CC5)CN(c5ccc7c(c5F)CN(C5CCC(=O)NC5=O)C7=O)C6(C)C)CC4)ncc3Cl)ccc2n(C(C)C)c1=O (stereo not drawn) [Compound 229, 2-{[6-({5-chloro-2-[4-({2-[2-(2,6-dioxopiperidin-3-yl)-4-fluoro-1-oxo-2,3-dihydro-1H-isoindol-5-yl]-1,1-dimethyl-2,7-diazaspiro[3.5]nonan-7-yl}methyl)piperidin-1-yl]pyridin-4-yl}amino)-2-oxo-1-(propan-2-yl)-1,2-dihydroquinolin-3-yl]oxy}-N-methylacetamide] |  |  | ≥ 70% | < 10 nM | 
CNC(=O)COc1cc2cc(Nc3nc(N4CCC(O[C@H]5C[C@H](N6CCN(c7ccc8c(c7)C(=O)N(C7CCC(=O)NC7=O)C8=O)[C@@H](C)C6)C5)CC4)ncc3Cl)ccc2n(C(C)C)c1=O (stereo partly drawn) [Compound 391, 2-({6-[(5-chloro-2-{4-[(1r,3r)-3-[(3S)-4-[2-(2,6-dioxopiperidin-3-yl)-1,3-dioxo-2,3-dihydro-1H-isoindol-5-yl]-3-methylpiperazin-1-yl]cyclobutoxy]piperidin-1-yl}pyrimidin-4-yl)amino]-2-oxo-1-(propan-2-yl)-1,2-dihydroquinolin-3-yl}oxy)-N-methylacetamide] |  |  | ≥ 70% | < 10 nM | 
CNC(=O)COc1cc2cc(Nc3nc(N4CCC(CN5CCC6(CC5)CN(c5ccc7c(c5F)CN(C5CCC(=O)NC5=O)C7=O)C6)CC4)ncc3Cl)ccc2n(C(C)C)c1=O (stereo not drawn) [Compound 71, 2-{[6-({5-chloro-2-[4-({2-[2-(2,6-dioxopiperidin-3-yl)-4-fluoro-1-oxo-2,3-dihydro-1H-isoindol-5-yl]-2,7-diazaspiro[3.5]nonan-7-yl}methyl)piperidin-1-yl]pyrimidin-4-yl}amino)-2-oxo-1-(propan-2-yl)-1,2-dihydroquinolin-3-yl]oxy}-N-methylacetamide] | < 10 nM | 50 to 70% |  |  | 
CC[C@H]1CN([C@H]2C[C@H](OC3CCN(c4ncc(Cl)c(Nc5ccc6c(c5)cc(OCC(=O)NC)c(=O)n6C(C)C)n4)CC3)C2)CCN1c1ccc2c(c1Cl)CN(C1CCC(=O)NC1=O)C2=O (stereo partly drawn) [Compound 196, 2-({6-[(5-chloro-2-{4-[(1r,3r)-3-[(3S)-4-[4-chloro-2-(2,6-dioxopiperidin-3-yl)-1-oxo-2,3-dihydro-1H-isoindol-5-yl]-3-ethylpiperazin-1-yl]cyclobutoxy]piperidin-1-yl}pyrimidin-4-yl)amino]-2-oxo-1-(propan-2-yl)-1,2-dihydroquinolin-3-yl}oxy)-N-methylacetamide] | < 10 nM | ≥ 70% |  |  | 
CNC(=O)COc1cc2cc(Nc3nc(N4CCC(O[C@H]5C[C@H](N6CCN(c7c(F)cc8c(c7F)CN(C7CCC(=O)NC7=O)C8=O)CC6)C5)CC4)ncc3Cl)ccc2n(C(C)C)c1=O (stereo partly drawn) [Compound 386, 2-({6-[(5-chloro-2-{4-[(1r,3r)-3-{4-[2-(2,6-dioxopiperidin-3-yl)-4,6-difluoro-1-oxo-2,3-dihydro-1H-isoindol-5-yl]piperazin-1-yl}cyclobutoxy]piperidin-1-yl}pyrimidin-4-yl)amino]-2-oxo-1-(propan-2-yl)-1,2-dihydroquinolin-3-yl}oxy)-N-methylacetamide] |  |  | 50 to 70% | < 10 nM | 
CNC(=O)COc1cc2cc(Nc3nc(N4CCC(O[C@H]5C[C@H](N6CCN(c7ccc8c(c7F)CN(C7CCC(=O)NC7=O)C8=O)CC6)C5)CC4)ncc3Cl)ccc2n(C(C)C)c1=O (stereo partly drawn) [Compound 164, 2-[[6-[[5-chloro-2-[4-[3-[4-[2-(2,6-dioxo-3-piperidyl)-4-fluoro-1-oxo-isoindolin-5-yl]piperazin-1-yl]cyclobutoxy]-1-piperidyl]pyrimidin-4-yl]amino]-1-isopropyl-2-oxo-3-quinolyl]oxy]-N-methyl-acetamide formate] | < 10 nM | ≥ 70% |  |  | 
CNC(=O)COc1cc2cc(Nc3nc(N4CCC(O[C@H]5C[C@H](N6CCN(c7ccc8c(n7)CN(C7CCC(=O)NC7=O)C8=O)[C@H](C)C6)C5)CC4)ncc3Cl)ccc2n(C(C)C)c1=O (stereo partly drawn) [Compound 415, 2-({6-[(5-chloro-2-{4-[(1r,3r)-3-[(3R)-4-[6-(2,6-dioxopiperidin-3-yl)-5-oxo-5H,6H,7H-pyrrolo [3,4-b]pyridin-2-yl]-3-methylpiperazin-1-yl]cyclobutoxy]piperidin-1-yl}pyrimidin-4-yl)amino]-2-oxo-1-(propan-2-yl)-1,2-dihydroquinolin-3-yl}oxy)-N-methylacetamide] |  |  |  | < 10 nM | A (A >= 70)
CNC(=O)COc1cc2cc(Nc3nc(N4CCC(O[C@H]5C[C@H](N6CCC(c7cc(C)c8c(c7F)CN(C7CCC(=O)NC7=O)C8=O)CC6)C5)CC4)ncc3Cl)ccc2n(C(C)C)c1=O (stereo partly drawn) [Compound 208, 2-({6-[(5-chloro-2-{4-[(1r,3r)-3-{4-[2-(2,6-dioxopiperidin-3-yl)-4-fluoro-7-methyl-1-oxo-3H-isoindol-5-yl]piperidin-1-yl}cyclobutoxy]piperidin-1-yl}pyrimidin-4-yl)amino]-1-isopropyl-2-oxoquinolin-3-yl}oxy)-N-methylacetamide] | < 10 nM | ≥ 70% |  |  | 
CNC(=O)COc1cc2cc(Nc3nc(N4CCC(O[C@H]5C[C@H](N6CCC(c7cnc8c(c7)CN(C7CCC(=O)NC7=O)C8=O)CC6)C5)CC4)ncc3Cl)ccc2n(C(C)C)c1=O (stereo partly drawn) [Compound 216, 2-({6-[(5-chloro-2-{4-[(1r,3r)-3-{4-[6-(2,6-dioxopiperidin-3-yl)-7-oxo-5H,6H,7H-pyrrolo[3,4-b]pyridin-3-yl]piperidin-1-yl}cyclobutoxy]piperidin-1-yl}pyrimidin-4-yl)amino]-2-oxo-1-(propan-2-yl)-1,2-dihydroquinolin-3-yl}oxy)-N-methylacetamide] |  |  | 50 to 70% | < 10 nM | 
CNC(=O)COc1cc2cc(Nc3nc(N4CCC(OC5CN([C@H]6CC[C@H](c7ccc8c(c7)CN(C7CCC(=O)NC7=O)C8=O)CC6)C5)CC4)ncc3Cl)ccc2n(C(C)C)c1=O (single isomer, unassigned) [Compound 165, 2-((6-((5-chloro-2-(4-((1-((1r,4r)-4-(2-(2,6-dioxopiperidin-3-yl)-1-oxoisoindolin-5-yl)cyclohexyl)azetidin-3-yl)oxy)piperidin-1-yl)pyrimidin-4-yl)amino)-1-isopropyl-2-oxo-1,2-dihydroquinolin-3-yl)oxy)-N-methylacetamide] | < 10 nM | 50 to 70% |  |  | 
CNC(=O)COc1cc2cc(Nc3nc(N4CCC(O[C@H]5C[C@H](N6CCC7(CCN(c8ccc9c(c8)CN(C8CCC(=O)NC8=O)C9=O)C7)CC6)C5)CC4)ncc3Cl)ccc2n(C(C)C)c1=O (stereo partly drawn) [Compound 361, 2-({6-[(5-chloro-2-{4-[(1r,3r)-3-{2-[2-(2,6-dioxopiperidin-3-yl)-1-oxo-2,3-dihydro-1H-isoindol-5-yl]-2,8-diazaspiro [4.5]decan-8-yl}cyclobutoxy]piperidin-1-yl}pyrimidin-4-yl)amino]-2-oxo-1-(propan-2-yl)-1,2-dihydroquinolin-3-yl}oxy)-N-methylacetamide] |  |  | 50 to 70% | < 10 nM | 
